US20070249844A1, “Pyrazole derivatives and process for the production thereof” (Ihara Chemical Industry Co., Ltd., priority 2002, published 2007)

| melting point | Structure (SMILES) |
| --- | --- |
| 88 to 89 °C | CC(C)n1nc(C(F)(F)F)c(CS(=O)(=O)C2=NOC(C)(C)C2)c1OCC(F)F |
| 150 to 152 °C | CCn1nc(C(F)(F)F)c(C)c1O |
| 97 to 98 °C | Cn1nc(C(F)(F)F)c(CS(=O)(=O)C2=NOC3CCCCC23)c1OC(F)F (stereo not drawn) |
| 115 to 117 °C | Cn1nc(C(F)(F)F)c(CS(=O)(=O)C2=NOCC2)c1OC(F)F |
| 109 to 110 °C | CC(C)n1nc(C(F)(F)F)c(CS(=O)(=O)C2=NOC(C)(C)C2)c1OCC(F)(F)F |
| 85 to 86 °C | CC(C)C1CC(S(=O)(=O)Cc2c(C(F)(F)F)nn(C)c2OC(F)F)=NO1 (stereo not drawn) |
| 49 to 51 °C | CCCn1nc(C(F)(F)F)c(CS(=O)(=O)C2=NOC(C)(C)C2)c1OCC(F)(F)F |
| 96 to 98 °C | Cn1nc(C(F)(F)F)c(CS(=O)(=O)C2=NOC(C)(C3CC3)C2)c1OC(F)F (stereo not drawn) |
| 98 to 100 °C | CCn1nc(C(F)(F)F)c(CS(=O)(=O)C2=NOC(C)(C)C2)c1OC(F)F |
| 77 to 78 °C | CCC1(C)CC(S(=O)(=O)Cc2c(C(F)(F)F)nn(C)c2OC(F)F)=NO1 (stereo not drawn) |
| 89 to 91 °C | Cn1nc(C(F)(F)F)c(CS(=O)(=O)C2=NOC(C)(C)C2)c1OCC(F)F |
| 106 to 107 °C | CC1CC(S(=O)(=O)Cc2c(C(F)(F)F)nn(C)c2OC(F)F)=NO1 (stereo not drawn) |
| 39 to 40 °C | Cn1nc(C(F)(F)F)c(CSC2=NOC(C)(C)C2)c1OC(F)F |
| 84 to 86 °C | CCn1nc(C(F)(F)F)c(CS(=O)(=O)C2=NOC(C)(C)C2)c1OCC(F)(F)F |
| 133 to 134 °C | CCCn1nc(C(F)(F)F)c(C)c1O |
| 93 to 95 °C | Cn1nc(C(F)(F)F)c(CS(=O)(=O)C2=NOC(C)(C)C2)c1OCC(F)(F)F |
| 139 to 141 °C | Br.CCn1nc(C(F)(F)F)c(CSC(=N)N)c1OC(F)F |
| 91 to 92 °C | CC1(C)CC(S(=O)(=O)Cc2c(C(F)(F)F)nn(C(C)(C)C)c2OCC(F)(F)F)=NO1 |
